The subject of the assay is TGF-β signaling. Nature of the assay: Assay for evaluating cellular inhibition of TGF-β signaling, 4T1 (SBE-luc2P) luciferase reporter. Type of assay: cell-based. The note with it: Mus musculus, 4T1, 4T1 (SBE-luc2P) transient pool, 0.2% FBS, 2 h pre-treatment, TGF-β1 2 ng/mL 24 h; read-out: IC50 4T1 Cell. The protocol:
[Example 2] Assay for Evaluating Cellular Inhibition of TGF-β Signaling
4T1 (SBE-luc2P) transient pool that have SBE-luc2P (hygro) expression plasmid or HEK293 (SBE reporter) stable cells (BPS bioscience) were seeded at 6×10^3 cells/well or 2.5×10^4 cells/well in 96-well plate, respectively. 4T1 (SBE-luc2P) transient pool were pre-treated with novel compound synthesized in Example 1 above in 0.2% FBS at approximately 60% confluence at 37° C. in 5% CO2. Also, HEK293 (SBE reporter) stable cells were pre-treated with each test compounds of formula in 0.5% FBS at approximately 80% confluence at 37° C. in 5% CO2. After 2 hours, cells were treated with TGF-β1 (2 ng/mL) for 24 h at 37° C. in 5% CO2. Cell lysates were prepared using Luciferase Assay (Promega) according to the manufacturer's instruction, and luminescence was measured by a plate reader, Biotek Synergy H1 (Vermont, USA).
(In general: In a reporter assay the amount or activity of a reporter protein is the signal.)

Bounds are passed on as bounds.

With `Cc1nc(-c2ccccc2)c(Oc2ccnc(NCc3cccnc3)c2)s1` [A-81, 4-((2-Methyl-4-phenylthiazol-5-yl)oxy)-N-(pyridin-3-ylmethyl)pyridin-2-amine], the IC50 – broadly, the concentration at which inhibition is half-maximal – was > 100 nM.

`Cc1nc(-c2ccccc2)c(Oc2ccnc(Nc3cccnc3)c2)s1` [A-82, 4-((2-Methyl-4-phenylthiazol-5-yl)oxy)-N-(pyridin-3-yl)pyridin-2-amine]: the 50% inhibitory concentration (IC50) is > 100 nM.

Regarding `Cc1nc(-c2ccccc2)c(Oc2ccnc(Nc3ccc(F)nc3)c2)s1` [A-83, N-(6-Fluoropyridin-3-yl)-4-((2-methyl-4-phenylthiazol-5-yl)oxy)pyridin-2-amine], the half-maximal inhibitory concentration (IC50) is > 100 nM.

Regarding `Cc1nc(-c2ccccc2)c(Oc2ccnc(Nc3ccc(Cl)nc3)c2)s1` [A-84, N-(6-Chloropyridin-3-yl)-4-((2-methyl-4-phenylthiazol-5-yl)oxy)pyridin-2-amine], the IC50 was > 100 nM.

Regarding `Cc1nc(-c2ccccc2)c(Oc2ccnc(Nc3ccnc(F)c3)c2)s1` [A-87, N-(2-Fluoropyridin-4-yl)-4-((2-methyl-4-phenylthiazol-5-yl)oxy)pyridin-2-amine], the concentration for half-maximal inhibition (IC50) is > 100 nM.

As to `COc1cc(Nc2cc(Oc3sc(C)nc3-c3ccccc3)ccn2)ccn1` [A-88, N-(2-Methoxypyridin-4-yl)-4-((2-methyl-4-phenylthiazol-5-yl)oxy)pyridin-2-amine], the IC50 is < 100 nM.

With `Cc1nc(-c2ccccc2)c(Oc2ccnc(Nc3ccnc(Cl)c3)c2)s1` [A-89, N-(2-Chloropyridin-4-yl)-4-((2-methyl-4-phenylthiazol-5-yl)oxy)pyridin-2-amine], the IC50 is < 100 nM.

For `Cc1nc(-c2ccccc2)c(Oc2ccnc(Nc3ccc(C(N)=O)cn3)c2)s1` [A-90, 6-((4-((2-Methyl-4-phenylthiazol-5-yl)oxy)pyridin-2-yl)amino)nicotinamide], the IC50 is < 100 nM.

As to `Cc1nc(-c2ccccc2)c(Oc2ccnc(NCc3ccccc3)c2)s1` [A-94, N-Benzyl-4-((2-methyl-4-phenylthiazol-5-yl)oxy)pyridin-2-amine], the IC50 is > 100 nM.

In the case of `Cc1nc(-c2ccccc2)c(Oc2ccnc(NCc3ccc(F)cc3)c2)s1` [A-95, N-(4-Fluorobenzyl)-4-((2-methyl-4-phenylthiazol-5-yl)oxy)pyridin-2-amine], the 50% inhibitory concentration (IC50) was > 100 nM.

For the compound `Cc1nc(-c2ccccc2)c(Oc2ccnc(NCc3cccc(F)c3)c2)s1` [A-96, N-(3-Fluorobenzyl)-4-((2-methyl-4-phenylthiazol-5-yl)oxy)pyridin-2-amine], the IC50 is > 100 nM.

Take `Cc1nc(-c2ccccc2)c(Oc2ccnc(Nc3cnn(S(C)(=O)=O)c3)c2)s1` [A-97, 4-((2-Methyl-4-phenylthiazol-5-yl)oxy)-N-(1-(methylsulfonyl)-1H-pyrazol-4-yl)pyridin-2-amine]: the IC50 was > 100 nM.

In the case of `Cc1nc(-c2ccccc2)c(Oc2ccnc(Nc3cnn(S(=O)(=O)C4CC4)c3)c2)s1` [A-98, N-(1-(Cyclopropylsulfonyl)-1H-pyrazol-4-yl)-4-((2-methyl-4-phenylthiazol-5-yl)oxy)pyridin-2-amine], the IC50 is > 100 nM.

On to `Cc1nc(-c2ccccc2)c(Oc2ccnc(Nc3cnn(C)c3)c2)s1` [A-99, N-(1-Methyl-1H-pyrazol-4-yl)-4-((2-methyl-4-phenylthiazol-5-yl)oxy)pyridin-2-amine], for which the IC50 was < 100 nM.

`Cc1nc(-c2ccccc2)c(Oc2ccnc(Nc3cn[nH]c3)c2)s1` [A-100, 4-((2-Methyl-4-phenylthiazol-5-yl)oxy)-N-(1H-pyrazol-4-yl)pyridin-2-amine]: the IC50 is < 100 nM.

Take `Cc1nc(-c2ccccc2)c(Oc2ccnc(Nc3cccc(C(N)=O)n3)c2)s1` [A-101, 6-((4-((2-Methyl-4-phenylthiazol-5-yl)oxy)pyridin-2-yl)amino)picolinamide]: the half-maximal inhibitory concentration (IC50) was < 100 nM.

As for `Cc1nc(-c2ccccc2)c(Oc2ccnc(Nc3ccnc(C(N)=O)c3)c2)s1` [A-102, 4-((4-((2-Methyl-4-phenylthiazol-5-yl)oxy)pyridin-2-yl)amino)picolinamide], the IC50 was > 100 nM.

In the case of `COc1ccc(Nc2cc(Oc3sc(C)nc3-c3ccccc3)ccn2)cc1` [A-103, N-(4-Methoxyphenyl)-4-((2-methyl-4-phenylthiazol-5-yl)oxy)pyridin-2-amine], the half-maximal inhibitory concentration (IC50) was > 100 nM.

As to `COc1cc(Nc2cc(Oc3sc(C)nc3-c3ccccc3)ccn2)ccc1N1CCN(C)CC1` [A-106, N-(3-Methoxy-4-(4-methylpiperazin-1-yl)phenyl)-4-((2-methyl-4-phenylthiazol-5-yl)oxy)pyridin-2-amine], the half-maximal inhibitory concentration (IC50) is < 100 nM.

`COCCN1CCN(c2ccc(Nc3cc(Oc4sc(C)nc4-c4ccccc4)ccn3)cc2)CC1` [A-108, N-(4-(4-(2-Methoxyethyl)piperazin-1-yl)phenyl)-4-((2-methyl-4-phenylthiazol-5-yl)oxy)pyridin-2-amine]: the IC50 was < 100 nM.

As to `O=S(=O)(Nc1cccc(Nc2cc(Oc3sc(C4CC4)nc3-c3ccccc3)ccn2)c1)C(F)(F)F` [A-123, N-(3-((4-((2-Cyclopropyl-4-phenylthiazol-5-yl)oxy)pyridin-2-yl)amino)phenyl)-1,1,1-trifluoromethanesulfonamide], the 50% inhibitory concentration (IC50) is < 100 nM.

Consider `COC(=O)c1ccc(Nc2cc(Oc3sc(C4CC4)nc3-c3ccccc3)ccn2)nc1` [A-130, Methyl 6-((4-((2-cyclopropyl-4-phenylthiazol-5-yl)oxy)pyridin-2-yl)amino)nicotinate], for which the IC50 was < 100 nM.

On to `COC(=O)c1cccc(Nc2cc(Oc3sc(C4CC4)nc3-c3ccccc3)ccn2)n1` [A-131, Methyl 6-((4-((2-cyclopropyl-4-phenylthiazol-5-yl)oxy)pyridin-2-yl)amino)picolinate], for which the IC50 is > 100 nM.

Consider `COC(=O)c1cccc(Nc2cc(Oc3sc(N(C)C)nc3-c3ccccc3)ccn2)n1` [A-162, Methyl 6-((4-((2-(dimethylamino)-4-phenylthiazol-5-yl)oxy)pyridin-2-yl)amino)picolinate], for which the half-inhibitory concentration (IC50) is < 100 nM.

Regarding `COC(=O)c1cccc(Nc2cc(Oc3sc(C(C)C)nc3-c3ccccc3)ccn2)n1` [A-216, Methyl 6-((4-((2-Isopropyl-4-phenylthiazol-5-yl)oxy)pyridin-2-yl)amino)picolinate], the half-inhibitory concentration (IC50) was > 100 nM.

Regarding `Cc1nc(-c2ccccc2)c(Oc2cc(Nc3cccc(S(N)(=O)=O)c3)ncn2)s1` [A-237, 3-((6-((2-Methyl-4-phenylthiazol-5-yl)oxy)pyrimidin-4-yl)amino)benzenesulfonamide], the half-maximal inhibitory concentration (IC50) was > 100 nM.

As to `Nc1nc(-c2ccccc2)c(Oc2cc(Nc3cccc(S(N)(=O)=O)c3)ncn2)s1` [A-239, 3-((6-((2-Amino-4-phenylthiazol-5-yl)oxy)pyrimidin-4-yl)amino)benzenesulfonamide], the IC50 was < 100 nM.

In the case of `Cc1cccc(-c2nc(C)sc2Oc2ccnc(Nc3cccc(Cc4nnn[nH]4)c3)c2)n1` [A-305, N-(3-((1H-Tetrazol-5-yl)methyl)phenyl)-4-((2-methyl-4-(6-methylpyridin-2-yl)thiazol-5-yl)oxy)pyridin-2-amine], the IC50 is > 100 nM.

In the case of `Cc1cccc(-c2nc(C)sc2Oc2ccnc(Nc3cccc(CCC#N)c3)c2)n1` [A-306, 3-(3-((4-((2-Methyl-4-(6-methylpyridin-2-yl)thiazol-5-yl)oxy)pyridin-2-yl)amino)phenyl)propanenitrile], the IC50 is < 100 nM.

Turning to `Cc1cccc(-c2nc(C)sc2Oc2ccnc(Nc3cccc(CCc4nn[nH]n4)c3)c2)n1` [A-307, N-(3-(2-(2H-tetrazol-5-yl)ethyl)phenyl)-4-((2-methyl-4-(6-methylpyridin-2-yl)thiazol-5-yl)oxy)pyridin-2-amine], the IC50 is < 100 nM.

Regarding `COC(=O)C(C)(C)c1cccc(Nc2cc(Oc3sc(C)nc3-c3cccc(C)n3)ccn2)c1` [A-308, Methyl 2-methyl-2-(3-((4-((2-methyl-4-(6-methylpyridin-2-yl)thiazol-5-yl)oxy)pyridin-2-yl)amino)phenyl)propanoate], the IC50 was < 100 nM.

On to `CCc1nc(-c2ccccc2)c(Oc2ccnc(Nc3cccc(NS(=O)(=O)C(F)(F)F)c3)c2)s1` [A-311, N-(3-((4-((2-Ethyl-4-phenylthiazol-5-yl)oxy)pyridin-2-yl)amino)phenyl)-1,1,1-trifluoromethanesulfonamide], for which the IC50 was < 100 nM.
